The source of these data is paper PMC4260220 (Scientific Reports, 2014).

This assay has as its target T1, PPARγ (Homo sapiens, UniProt P37231).
T1 sequence (P37231 231-505 limits assumed): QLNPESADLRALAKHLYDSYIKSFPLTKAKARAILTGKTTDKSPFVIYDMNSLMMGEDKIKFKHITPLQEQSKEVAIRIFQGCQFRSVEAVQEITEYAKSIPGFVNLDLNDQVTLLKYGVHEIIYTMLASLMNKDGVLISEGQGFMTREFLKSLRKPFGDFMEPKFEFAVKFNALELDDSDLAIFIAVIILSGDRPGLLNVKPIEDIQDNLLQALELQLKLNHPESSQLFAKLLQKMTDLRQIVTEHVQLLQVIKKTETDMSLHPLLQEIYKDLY
Kind of assay: competitive TR-FRET binding assay. In general terms: TR-FRET usually uses a lanthanide donor and a delayed reading to cut background.

Take `CC(C)=CCC[C@](C)(O)[C@H]1CC[C@]2(C)[C@@H]1[C@H](O)C[C@@H]1[C@@]3(C)CC[C@H](O)C(C)(C)[C@@H]3[C@@H](O)C[C@]12C` [PPT, 20(S)-5α-Dammar-24-ene-3β,6α,12β,20-tetrol]: the Ki (commonly a measure of affinity in units of concentration, obtained from inhibition or displacement) was determined as 4.2 µM.
